# Assay: Increased percentage of formazan production in drug treated virus infected cells to equal 50% control drug free uninfected cells on serotype 14
row,SMILES,EC50 [nM]
1,"CCOC(=O)/C=C/[C@H](C[C@@H]1CCNC1=O)NC(=O)[C@H](Cc1ccc(F)cc1)NC(=O)[C@@H](NC(=O)c1cc(C)on1)C(C)(C)C [(E)-(S)-4-[(S)-2-{(S)-3,3-Dimethyl-2-[(5-methyl-isoxazole-3-carbonyl)-amino]-butyrylamino}-3-(4-fluoro-phenyl)-propionylamino]-5-((S)-2-oxo-pyrrolidin-3-yl)-pent-2-enoic acid ethyl ester]",10
2,CCOC(=O)/C=C/[C@H](C[C@@H]1CCCNC1=O)NC(=O)[C@H](Cc1ccc(F)cc1)NC(=O)[C@@H](NC(=O)c1cc(C)on1)C(C)C [(E)-(S)-4-((S)-3-(4-Fluoro-phenyl)-2-{(S)-3-methyl-2-[(5-methyl-isoxazole-3-carbonyl)-amino]-butyrylamino}-propionylamino)-5-((S)-2-oxo-piperidin-3-yl)-pent-2-enoic acid ethyl ester],20
3,"CCOC(=O)/C=C/[C@H](C[C@@H]1CCCNC1=O)NC(=O)[C@@H](CC(=O)[C@@H](NC(=O)c1cc(C)on1)C(C)C)Cc1ccc(F)cc1 [(E)-(S)-4-{(2R,5S)-2-(4-Fluoro-benzyl)-6-methyl-5-[(5-methyl-isoxazole-3-carbonyl)-amino]-4-oxo-heptanoylamino}-5-((S)-2-oxo-piperidin-3-yl)-pent-2-enoic acid ethyl ester]",1
4,CCOC(=O)/C=C/[C@H](C[C@@H]1CCNC1=O)NC(=O)[C@H](Cc1ccc(F)cc1)NC(=O)[C@@H](NC(=O)c1cc(C)on1)C(C)C [AG7088 analogue 2a],10

# Now from value to molecule:
row,EC50 [nM],SMILES
1,5600,CCOC(=O)/C=C/[C@H](CCC(=O)NC)NC(=O)[C@H](Cc1ccccc1)NC(=O)[C@H](CC(C)C)NC(=O)OCc1ccccc1 [(E)-(S)-4-[(S)-2-((S)-2-Benzyloxycarbonylamino-4-methyl-pentanoylamino)-3-phenyl-propionylamino]-6-methylcarbamoyl-hex-2-enoic acid ethyl ester]
2,30,"CCOC(=O)/C=C/[C@H](C[C@@H]1CCNC1=O)NC(=O)[C@H](Cc1ccccc1)NC(=O)[C@@H](NC(=O)OCc1ccccc1)C(C)C [ethyl (2E,4S)-4-[(2S)-2-[(2S)-2-{[(benzyloxy)carbonyl]amino}-3-methylbutanamido]-3-phenylpropanamido]-5-[(3S)-2-oxopyrrolidin-3-yl]pent-2-enoate]"
3,4000,CCOC(=O)/C=C/[C@H](CCC(=O)N(C)C)NC(=O)[C@H](Cc1ccccc1)NC(=O)[C@H](CC(C)C)NC(=O)OCc1ccccc1 [(E)-(S)-4-[(S)-2-((S)-2-Benzyloxycarbonylamino-4-methyl-pentanoylamino)-3-phenyl-propionylamino]-6-dimethylcarbamoyl-hex-2-enoic acid ethyl ester]
4,30,CCOC(=O)/C=C/[C@H](C[C@@H]1CCCNC1=O)NC(=O)[C@H](Cc1ccccc1)NC(=O)[C@H](CC(C)C)NC(=O)OCc1ccccc1 [(E)-(S)-4-[(S)-2-((S)-2-Benzyloxycarbonylamino-4-methyl-pentanoylamino)-3-phenyl-propionylamino]-5-((S)-2-oxo-piperidin-3-yl)-pent-2-enoic acid ethyl ester]
5,600,CCOC(=O)/C=C/[C@H](CN1CCNC1=O)NC(=O)[C@H](Cc1ccccc1)NC(=O)[C@H](CC(C)C)NC(=O)OCc1ccccc1 [(E)-(R)-4-[(S)-2-((S)-2-Benzyloxycarbonylamino-4-methyl-pentanoylamino)-3-phenyl-propionylamino]-5-(2-oxo-imidazolidin-1-yl)-pent-2-enoic acid ethyl ester]

# Assay: The EC50 was calculated as the concentration of drug that increased the percentage of formazan production in drug treated, virus infected cells to 50% of that produced by drug free uninfected cells on serotype 2.
row,EC50 [nM],SMILES
1,1600,CCOC(=O)/C=C/[C@H](CCC(N)=O)NC(=O)[C@H](Cc1ccccc1)NC(=O)[C@H](CC(C)C)NC(=O)OCc1ccccc1 [(E)-(S)-4-[(S)-2-((S)-2-Benzyloxycarbonylamino-4-methyl-pentanoylamino)-3-phenyl-propionylamino]-6-carbamoyl-hex-2-enoic acid ethyl ester]
